According to US9801387B2, “Compositions comprising a biological control agent and an insecticide” (Bayer CropScience AG, priority 2012, dated 2017):

Assays:
Format in all cases: in vivo
Myzus persicae = Myzus persicae - spray test (MYZUPE); conditions: mortality
Experimental: (§1) For all examples the efficiencies of the compositions comprising at least one BCA and at least one specific insecticide has been determined by the “Colby-formula”: The expected efficacy of a given combination of two compounds is calculated as follows (see Colby, S. R., “Calculating Synergistic and antagonistic Responses of Herbicide Combinations”, Weeds 15, pp. 20-22, 1967): • If • X is the efficacy expressed in % mortality of the untreated control for test compound A at a concentration of m ppm respectively m g/ha, • Y is the efficacy expressed in % mortality of the untreated control for test compound B at a concentration of n ppm respectively n g/ha, • E is the efficacy expressed in % mortality of the untreated control using the mixture of A and B at m and n ppm respectively m and n g/ha, then is E=X+Y−(X×Y/100)
(§2) If the observed insecticidal efficacy of the combination is higher than the one calculated as “E”, then the combination of the two compounds is more than additive, i.e., there is a synergistic effect.
Myzus persicae—Spray Test (MYZUPE) […]
(§3) After the specified period of time, mortality in % is determined. […] The mortality values determined thus are recalculated using the Colby-formula (see above).

Tetranychus urticae = Tetranychus urticae - spray test, OP-resistant; conditions: mortality, French beans sprayed
Experimental: as §1, §2
Tetranychus urticase—Spray Test, OP-resistant […]
as §3

Phaedon cochleariae = Phaedon cochleariae - spray test; conditions: mortality of larvae, 100 g ai/ha
Experimental: as §1, §2
Phaedan Cochleariae—Spray Test […]
as §3

| Structure (SMILES) | Efficacy in % after 1^d (Myzus persicae; Chinese cabbage leaf-disks sprayed, 1 d, 4 g/ha) | Efficacy in % after 6^d (Tetranychus urticae; 6 d, 20 g ai/ha) | Efficacy in % after 6^d (Phaedon cochleariae) | Efficacy in % after 6^d (Myzus persicae; 6 d, 100 g/ha) | Efficacy in % after 2^d (Tetranychus urticae; 2 d, 100 g ai/ha) |
| --- | --- | --- | --- | --- | --- |
| O=C1C=C(N(Cc2ccc(Cl)nc2)CC(F)F)CO1 [Flupyradifurone (I262), Flupyradifurone, reference compound] | 0% | 0% | – | – | – |
| Cc1cc(F)c(-n2nc(C(F)(F)F)nc2N)cc1[S+]([O-])CC(F)(F)F (centres unmarked) [I277, 1-{2-fluoro-4-methyl-5-[(2,2,2-trifluorethyl)sulfinyl]phenyl}-3-(trifluoromethyl)-1H-1,2,4-triazol-5-amine] | – | – | 0% | 0% | 0% |
